Reference: patent US4508645A, “Analogs of neurohypophysial hormones with inhibition effects” (Ceskoslovenska akademie ved, priority 1982, dated 1985)

Columns and labels:
pressor = pressor efficiency, inhibition activity pA2; type: in vivo; conditions: decimal commas
Source text: (§1) Certain biological effects of the analogs of oxytocin and vasopressin are set forth in Table I. The inhibition effects of compounds in an in vitro test are expressed as values of pA2, which is the negative logarithm of the molar concentration of inhibitor. This reduces the response of 2X units of an agonistic compound to be equal to the response of 1X units in the absence of inhibitor (Schild, Brit. J. Pharmacol. 2, 189, 1947; Dyckes et al, J. Med. Chem. 17, 160, 1974). In an […] test (uterus in vitro), the value of pA2 corresponds with the negative logarithm of an inhibitor constant according to the relationship [formula] wherein B is the concentration of inhibitor (M), A50 is the concentration of agonistic compound leading to 50% of the maximum effect, and A50B is the concentration of agonistic compound leading to 50% of the maximum effect in the presence of inhibitor B (Eggena et al, J. Gen. Physiol. 52, 465, 1968).

uterus in vitro = experiment: uterotonic efficiency in vitro, inhibition activity pA2; type: cell-based; conditions: pA2, negative logarithm of molar inhibitor concentration; decimal commas
Source text: as §1

galactogogic = galactogogic efficiency, inhibition activity pA2; type: in vivo; conditions: for Inhibition activity pA2 in the determination of efficiency galactogogic: decimal commas
Source text: as §1

uterus in situ = experiment: uterotonic efficiency in situ, inhibition activity pA2; type: in vivo; conditions: pA2, negative logarithm of inhibitor constant; decimal commas
Source text: as §1

Row | Compound | Inhibition activity pA2 in the determination of efficiency pressor (pressor) | Inhibition activity pA2 in the determination of efficiency uterotonic in vitro (uterus in vitro) | galactogogic agonistic activity (galactogogic; footnote b: agonistic activity, not pA2) | Inhibition activity pA2 in the determination of efficiency uterotonic in situ (uterus in situ) | Inhibition activity pA2 in the determination of efficiency galactogogic (galactogogic)
1 | CC[C@H](C)[C@@H]1NC(=O)[C@H](Cc2ccc(O)cc2)NC(=O)[C@@H](NC(C)=O)C(C)(C)SSC[C@@H](C(=O)N2CCC[C@H]2C(=O)N[C@@H](CC(C)C)C(=O)NCC(N)=O)NC(=O)[C@H](CC(N)=O)NC(=O)[C@H](CCC(N)=O)NC1=O [Ia, [1-N-acetylpenicilamine]oxytocin] | ineffective | 4,4 | – | – | –
2 | CC[C@H](C)[C@@H]1NC(=O)[C@H](Cc2ccc(OC)cc2)NC(=O)[C@@H](NC(C)=O)C(C)(C)SSC[C@@H](C(=O)N2CCC[C@H]2C(=O)N[C@@H](CC(C)C)C(=O)NCC(N)=O)NC(=O)[C@H](CC(N)=O)NC(=O)[C@H](CCC(N)=O)NC1=O [Ic, [1-N-acetylpenicilamine, 2-O-methyltyrosine]oxytocin] | 6,4 | 5,4 | 0,45 I.U./mg | – | –
3 | CC1(C)SSC[C@@H](C(=O)N2CCC[C@H]2C(=O)N[C@@H](CCCCN)C(=O)NCC(N)=O)NC(=O)[C@H](CC(N)=O)NC(=O)[C@H](CCC(N)=O)NC(=O)[C@H](Cc2ccccc2)NC(=O)[C@H](Cc2ccc(O)cc2)NC(=O)[C@H]1N [Id, [1-Penicilamine, 8-lysine]vasopressin] | 6,9 | 6,6 | – | 6,3 | –
4 | CC(=O)N[C@@H]1C(=O)N[C@@H](Cc2ccc(O)cc2)C(=O)N[C@@H](Cc2ccccc2)C(=O)N[C@@H](CCC(N)=O)C(=O)N[C@@H](CC(N)=O)C(=O)N[C@H](C(=O)N2CCC[C@H]2C(=O)N[C@@H](CCCCN)C(=O)NCC(N)=O)CSSC1(C)C [Ie, [1-N-Actylpenicilamine, 8-lysine]vasopressin] | ineffective | 5,5 | – | 6,3 | ineffective
5 | COc1ccc(C[C@@H]2NC(=O)[C@@H](N)C(C)(C)SSC[C@@H](C(=O)N3CCC[C@H]3C(=O)N[C@@H](CCCCN)C(=O)NCC(N)=O)NC(=O)[C@H](CC(N)=O)NC(=O)[C@H](CCC(N)=O)NC(=O)[C@H](Cc3ccccc3)NC2=O)cc1 [If, [1-Penicilamine, 2-O-methyltyrosine, 8-lysine]vasopressin] | 7,4 | 8,1 | – | 6,9 | 6,8
6 | COc1ccc(C[C@@H]2NC(=O)[C@@H](NC(C)=O)C(C)(C)SSC[C@@H](C(=O)N3CCC[C@H]3C(=O)N[C@@H](CCCCN)C(=O)NCC(N)=O)NC(=O)[C@H](CC(N)=O)NC(=O)[C@H](CCC(N)=O)NC(=O)[C@H](Cc3ccccc3)NC2=O)cc1 [Ig, [1-N-acetylpenicilamine, 2-O-methyltyrosine, 8-lysine]vasopressin] | 6,7 | – | – | – | ineffective
7 | CC1(C)SSC[C@H](N)C(=O)N[C@@H](Cc2ccc(O)cc2)C(=O)N[C@@H](Cc2ccccc2)C(=O)N[C@@H](CCC(N)=O)C(=O)N[C@@H](CC(N)=O)C(=O)N[C@@H]1C(=O)N1CCC[C@H]1C(=O)N[C@@H](CCCCN)C(=O)NCC(N)=O [Ih, [6-Penicilamine, 8-lysine]vasopressin] | 6,73 | 6,00 | – | 6,16 | –
8 | CC1(C)SSC(C)(C)[C@@H](C(=O)N2CCC[C@H]2C(=O)N[C@@H](CCCCN)C(=O)NCC(N)=O)NC(=O)[C@H](CC(N)=O)NC(=O)[C@H](CCC(N)=O)NC(=O)[C@H](Cc2ccccc2)NC(=O)[C@H](Cc2ccc(O)cc2)NC(=O)[C@H]1N [Ii, [1-Penicilamine, 6-penicilamine, 8-lysine]vasopressin] | 7,18 | 6,80 | – | 6,80 | –
9 | [1-Penicilamine, 2-O-methyltyrosine]oxytocin [Ib] | 7,2 | 8,0 | – | 6,9 | 6,8
